The record followed here is ChEMBL document CHEMBL3046474, “Development of robust QSAR model using rapid overlay of crystal structures (ROCS) based alignment: a test case of Tubulin inhibitors” (Med Chem Res, 2013).

The target of this assay is Tubulin. The experiment in a line: Inhibition of tubulin polymerization in Homo sapiens (human) solid tumor cells.

As to `COc1cc(/C=C\c2ccc(OC(C)=O)cc2)cc(OC)c1OC`, the pIC50 (as a rule, −log10 of the IC50, conventionally taken in molar units) was found to be 4.54.

The compound `COc1ccc(/C=C\c2cc(OC)c(OC)c(OC)c2)nc1` showed a pIC50 of 5.52.

In turn, `COc1ccc(/C=C(/C=O)c2cc(OC)c(OC)c(OC)c2)cc1` showed a pIC50 of 5.4. The pIC50 values of the last two compounds are within 0.2 log units of each other.

In turn, `COc1ccc(NCc2cc(OC)c(OC)c(OC)c2)cc1O.Cl` gave a negative-log IC50 (pIC50) of 5.05.

`COc1ccc(/C=C(/C#N)c2cc(OC)c(OC)c(OC)c2)cc1` returned a negative-log IC50 (pIC50) of 5.22.

On to `COc1cc(/C=C\c2ccccc2)cc(OC)c1OC`, for which the pIC50 is on record as 4.44.

With `COc1cc(/C=C\c2ccn(C)c(=O)c2)cc(OC)c1OC`, the pIC50 was determined as 5.7.

In turn, `COc1cc2ccc3cc(O)c(C)cc3c2c(OC)c1OC` came in with a pIC50 of 4.

For the compound `COc1ccc(/C=C(/C#N)c2cc(OC)c(OC)c(OC)c2)cc1O`, the negative logarithm of the IC50 (pIC50) worked out at 5.3.

For the compound `COc1cc(/C=C\c2ccc(Br)cc2)cc(OC)c1OC`, the pIC50 came to 5.51.

In turn, `COc1ccc(NCc2cc(OC)c(OC)c(OC)c2)cc1` yielded a pIC50 of 4.64.

Take `COc1ccc(OCc2cc(OC)c(OC)c(OC)c2)cc1O`: the negative logarithm of the IC50 (pIC50) is reported as 4.65. This pIC50 and that of the compound before are within 0.2 log units of each other.

Regarding `COc1ccc(CCCCc2cc(OC)c(OC)c(OC)c2)cc1O`, the pIC50 came out at 4.26.

Compound `COc1cccc(/C=C\c2cc(OC)c(OC)c(OC)c2)c1` registered a pIC50 of 5.06.

As for `COc1ccc(/C=C(/C#N)c2cc(OC)c(OC)c(OC)c2)cc1N`, the pIC50 was 5. The pIC50 values of the last two compounds are within 0.2 log units of each other.

`COc1cc(/C=C\c2cccc(SC)c2)cc(OC)c1OC` registered a negative logarithm of the IC50 (pIC50) of 5.21.

`COc1ccc(/C=C\c2cc(OC)c(OC)c(OC)c2)cn1` returned a pIC50 of 5.7.

As to `COc1ccc(/C=C(/C(N)=O)c2cc(OC)c(OC)c(OC)c2)cc1N`, the pIC50 is on record as 5.52. The pIC50 values of the last two compounds are within 0.2 log units of each other.

As for `COc1cc(/C=C\c2ccc(C)c(N)c2)cc(OC)c1OC`, the pIC50 came out at 5.4.

`COc1ccc(Cc2cc(OC)c(OC)c(OC)c2)cc1O`: the pIC50 amounted to 5.11.

`COc1ccc(/C(C#N)=C\c2cc(OC)c(OC)c(OC)c2)cc1N` registered a negative-log IC50 (pIC50) of 5.3. This pIC50 and that of the compound before are within 0.2 log units of each other.

As for `COc1ccc(CCc2cc(OC)c(OC)c(OC)c2)cc1O`, the negative logarithm of the IC50 (pIC50) came out at 5.48.

Compound `COc1cc(CNc2ccc(C)c(O)c2)cc(OC)c1OC.Cl` yielded a pIC50 of 5.46.

Compound `COc1cc(/C=C\c2ccc(C)cc2)cc(OC)c1OC` registered a pIC50 of 5.7.

`CCCOc1ccc(/C=C\c2cc(OC)c(OC)c(OC)c2)cc1` registered a negative logarithm of the IC50 (pIC50) of 5.22.

`COc1cc(/C=C\c2ccc(N(C)C)cc2)cc(OC)c1OC` returned a pIC50 of 5.47.

The compound `COc1ncc(/C=C\c2cc(OC)c(OC)c(OC)c2)cn1` came in with a negative-log IC50 (pIC50) of 5.52.

`COc1ccc(C(O)C(O)c2cc(OC)c(OC)c(OC)c2)cc1O` (centres undefined): the pIC50 is recorded as 4.66.

The compound `COc1ccc(\C=C/C=C/C=C/c2cc(OC)c(OC)c(OC)c2)cc1O` came in with a negative-log IC50 (pIC50) of 5.

The compound `COc1ccc(Oc2cc(OC)c(OC)c(OC)c2)cc1O` displayed a negative-log IC50 (pIC50) of 4.79.

As to `COc1cc(/C=C\c2ccc(Cl)c(N)c2)cc(OC)c1OC`, the negative logarithm of the IC50 (pIC50) was determined as 5.52.

Compound `COc1ccc(COc2cc(OC)c(OC)c(OC)c2)cc1O` displayed a negative-log IC50 (pIC50) of 5.46.

`COc1cnc(/C=C\c2cc(OC)c(OC)c(OC)c2)cn1` came in with a pIC50 of 5.05.

With `COc1cc(/C=C\c2ccc(C)c(N=[N+]=[N-])c2)cc(OC)c1OC`, the pIC50 turned out to be 5.92.
